In patent publication US7067518B2, “Pyridinyl-methyl-ethyl cyclohexanecarboxamides as serotonergic agents” (Wyeth, priority 2002, dated 2006):
Structures can show the parent of a compound that is named as a salt.

What was measured:
[1] = target: T1, human 5-HT1A receptor (Homo sapiens, UniProt P08908); assay: 5-HT1A affinity: displacement of [3H] 8-OHDPAT; type: binding; details: CHO cells stably transfected with the human 5-HT1A receptor
T1 construct: expressed in transfected cells; host or cells: CHO cells (stably transfected)
T1 sequence (P08908 1-422): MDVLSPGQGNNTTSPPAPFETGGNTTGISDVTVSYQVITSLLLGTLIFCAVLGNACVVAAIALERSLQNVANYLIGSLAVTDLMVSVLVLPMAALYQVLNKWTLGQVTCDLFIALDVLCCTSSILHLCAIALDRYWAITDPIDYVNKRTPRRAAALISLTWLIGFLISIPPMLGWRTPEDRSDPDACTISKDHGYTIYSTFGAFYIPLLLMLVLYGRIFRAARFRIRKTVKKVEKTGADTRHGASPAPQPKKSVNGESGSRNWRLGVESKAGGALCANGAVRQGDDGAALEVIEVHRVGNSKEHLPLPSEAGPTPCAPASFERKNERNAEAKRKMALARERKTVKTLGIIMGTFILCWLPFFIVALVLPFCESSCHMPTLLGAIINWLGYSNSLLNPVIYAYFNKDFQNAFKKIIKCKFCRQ
From the text: Affinity for the serotonin 5-HT1A receptor was established by assaying the test compound's ability to displace [^3H] 8-OHDPAT from its binding site on the receptor complex in CHO cells stably transfected with the human 5-HT1A receptor following the procedure described by J. Dunlop, Y. Zhang, D. Smith and L. Schechter (Eur. J. Pharmacol., submitted; variation of a procedure described by J. Zgombick et al., Naunyn-Schmiedeberg's Arch. Pharmacol., 354, 226–236 (1996)).

[2] = target: T1, human 5-HT1A receptor; assay: Antagonist activity: forskolin-stimulated cAMP turnover; type: cell-based; details: CHO cells stably transfected with the human 5-HT1A receptor, compounds with no agonist activity (Emax=0%)
From the text: Compounds shown to have no agonist activity (Emax=0%) are further analyzed to determine antagonist activity, as measured by the test compound's ability to inhibit forskolin-stimulated cAMP turnover in CHO cells stably transfected with the human 5-HT1A receptor using a procedure described by J. Dunlop, Y. Zhang, D. Smith and L. Schechter [Eur. J. Pharmacol., submitted; variation of a procedure described by J. Zgombick et al., Naunyn-Schmiedeberg's Arch. Pharmacol., 354, 226–236 (1996)].

[3] = target: T1, human 5-HT1A receptor; assay: Agonist activity: reversal of forskolin stimulation of cAMP; type: cell-based; details: reversal of forskolin-stimulated cAMP; CHO cells stably transfected with the human 5-HT1A receptor; RIA
Experimental: EC50 values are determined for the active test compounds. Stably transfected CHO cells were grown in DMEM containing 10% heat inactivated FBS and non-essential amino acids. The cells are plated at a density of […] per well in a 24 well plate and incubated for 2 days in a CO2 incubator. On the second day, the media is replaced with 0.5 mL treatment buffer (DMEM+25 mM HEPES, 5 mM theophylline, 10 mM pargyline) and incubated for 10 minutes at 37° C. Wells are treated with forskolin ([…]) followed immediately by the test compound ([…] for initial screen) and incubated for an additional 10 minutes at 37° C. The reaction is terminated by removal of the media and addition of 0.5 mL ice cold assay buffer (supplied in the RIA kit). Plates are stored at −20° C. prior to assessment of cAMP formation by RIA.

Row | Compound | IC50 [1] [nM] | IC50 [2] [nM] | melting point [°C] | EC50 [3] [nM]
1 | COc1ccccc1N1CCN(C[C@@H](Cc2ccccn2)NC(=O)C2(C)CCCCC2)CC1 [Example 15, (R)-1-Methyl-cyclohexanecarboxylic acid {2-[4-(2-methoxy-phenyl)-piperazin-1-yl]-1-pyridin-2-ylmethyl-ethyl}-amide] | 0.74 | 4.5 |  | 
2 | COc1ccccc1N1CCN(C[C@@H](Cc2cccnc2)NC(=O)C2(C)CCCCC2)CC1 (as salt: fumarate) [Example 5, (R)-1-Methyl-cyclohexanecarboxylic acid {2-[4-(2-methoxy-phenyl)-piperazin-1-yl]-1-pyridin-3-ylmethyl-ethyl}-amide] |  |  | 150 to 152 | 
3 | COc1ccccc1N1CCN(C[C@@H](Cc2ccccn2)NC(=O)C2CCCCC2)CC1 [Example 14, (R)-Cyclohexanecarboxylic acid {2-[4-(2-methoxy-phenyl)-piperazin-1-yl]-1-pyridin-2-ylmethyl-ethyl}-amide] | 1.26 |  |  | 53
4 | CN(C(=O)C1CCCCC1)[C@H](Cc1ccncc1)CN1CCN(c2cccc3c2OCCO3)CC1 (as salt: hydrochloride) [Example 25, Cyclohexanecarboxylic acid {(1R)-2-[4-(2,3-dihydro-benzo[1,4]dioxin-5-yl)-piperazin-1-yl]-1-pyridin-4-ylmethyl-ethyl}-methyl-amide] |  |  | 167 to 170 | 
5 | COc1ccccc1N1CCN(C[C@@H](Cc2ccccn2)N(C)C(=O)C2(C)CCCCC2)CC1 [Example 18, 1-Methyl-cyclohexanecarboxylic acid {(1R)-2-[4-(2-methoxy-phenyl)-piperazin-1-yl]-1-pyridin-2-ylmethyl-ethyl}-methyl-amide] | 3 | 132 |  | 
6 | COc1ccccc1N1CCN(C[C@@H](Cc2cccnc2)NC(=O)C2CCCCC2)CC1 [Example 4, (R)-Cyclohexanecarboxylic acid {2-[4-(2-methoxy-phenyl)-piperazin-1-yl]-1-pyridin-3-ylmethyl-ethyl}-amide] | 0.48 |  |  | 20.5
7 | COc1ccccc1N1CCN(C[C@@H](Cc2ccccn2)NC(=O)C2CCCCC2)CC1 (as salt: fumarate) [Example 14, (R)-Cyclohexanecarboxylic acid {2-[4-(2-methoxy-phenyl)-piperazin-1-yl]-1-pyridin-2-ylmethyl-ethyl}-amide] |  |  | 136 to 141 | 
8 | COc1ccccc1N1CCN(C[C@@H](Cc2ccncc2)NC(=O)C2CCCCC2)CC1 [Example 9, (R)-Cyclohexanecarboxylic acid {2-[4-(2-methoxy-phenyl)-piperazin-1-yl]-1-pyridin-4-ylmethyl-ethyl}-amide] | 0.56 |  |  | 141
9 | COc1ccccc1N1CCN(C[C@@H](Cc2cccnc2)NC(=O)C2(C)CCCCC2)CC1 [Example 5, (R)-1-Methyl-cyclohexanecarboxylic acid {2-[4-(2-methoxy-phenyl)-piperazin-1-yl]-1-pyridin-3-ylmethyl-ethyl}-amide] | 0.88 | 13.2 |  | 
10 | CN(C(=O)C1CCCCC1)[C@H](Cc1ccncc1)CN1CCN(c2cccc3c2OCCO3)CC1 [Example 25, Cyclohexanecarboxylic acid {(1R)-2-[4-(2,3-dihydro-benzo[1,4]dioxin-5-yl)-piperazin-1-yl]-1-pyridin-4-ylmethyl-ethyl}-methyl-amide] | 3.81 | 115 |  | 
11 | CC1(C(=O)N[C@H](Cc2ccncc2)CN2CCN(c3cccc4c3OCCO4)CC2)CCCCC1 [Example 23, 1-Methyl-cyclohexanecarboxylic acid {(1R)-2-[4-(2,3-dihydro-benzo[1,4]dioxin-5-yl)-piperazin-1-yl]-1-pyridin-4-ylmethyl-ethyl}-amide] | 1.13 |  |  | 108
12 | COc1ccccc1N1CCN(C[C@@H](Cc2ccccn2)N(C)C(=O)C2(C)CCCCC2)CC1 (as salt: fumarate) [Example 18, 1-Methyl-cyclohexanecarboxylic acid {(1R)-2-[4-(2-methoxy-phenyl)-piperazin-1-yl]-1-pyridin-2-ylmethyl-ethyl}-methyl-amide] |  |  | 145 to 146 | 
13 | CN(C(=O)C1CCCCC1)[C@H](Cc1cccnc1)CN1CCN(c2cccc3c2OCCO3)CC1 (as salt: hydrochloride) [Example 24, Cyclohexanecarboxylic acid {(1R)-2-[4-(2,3-dihydro-benzo[1,4]dioxin-5-yl)-piperazin-1-yl]-1-pyridin-3-ylmethyl-ethyl}-methyl-amide] |  |  | 167 to 170 | 
14 | COc1ccccc1N1CCN(C[C@@H](Cc2ccncc2)NC(=O)C2(C)CCCCC2)CC1 (as salt: fumarate) [Example 10, (R)-1-Methyl-cyclohexanecarboxylic acid {2-[4-(2-methoxy-phenyl)-piperazin-1-yl]-1-pyridin-4-ylmethyl-ethyl}-amide] |  |  | 145 | 
15 | CC1(C(=O)N[C@H](Cc2cccnc2)CN2CCN(c3cccc4c3OCCO4)CC2)CCCCC1 [Example 22, 1-Methyl-cyclohexanecarboxylic acid {(1R)-2-[4-(2,3-dihydro-benzo[1,4]dioxin-5-yl)-piperazin-1-yl]-1-pyridin-3-ylmethyl-ethyl}-amide] | 2.58 |  |  | 10.2
16 | COc1ccccc1N1CCN(C[C@@H](Cc2ccncc2)NC(=O)C2CCCCC2)CC1 (as salt: maleate) [Example 9, (R)-Cyclohexanecarboxylic acid {2-[4-(2-methoxy-phenyl)-piperazin-1-yl]-1-pyridin-4-ylmethyl-ethyl}-amide] |  |  | 145 to 147 | 
17 | CC1(C(=O)N[C@H](Cc2cccnc2)CN2CCN(c3cccc4c3OCCO4)CC2)CCCCC1 (as salt: hydrochloride) [Example 22, 1-Methyl-cyclohexanecarboxylic acid {(1R)-2-[4-(2,3-dihydro-benzo[1,4]dioxin-5-yl)-piperazin-1-yl]-1-pyridin-3-ylmethyl-ethyl}-amide] |  |  | 188 to 190 | 
18 | COc1ccccc1N1CCN(C[C@@H](Cc2ccccn2)NC(=O)C2(C)CCCCC2)CC1 (as salt: fumarate) [Example 15, (R)-1-Methyl-cyclohexanecarboxylic acid {2-[4-(2-methoxy-phenyl)-piperazin-1-yl]-1-pyridin-2-ylmethyl-ethyl}-amide] |  |  | 135 to 139 | 
19 | COc1ccccc1N1CCN(C[C@@H](Cc2cccnc2)NC(=O)C2CCCCC2)CC1 (as salt: maleate) [Example 4, (R)-Cyclohexanecarboxylic acid {2-[4-(2-methoxy-phenyl)-piperazin-1-yl]-1-pyridin-3-ylmethyl-ethyl}-amide] |  |  | 112 to 115 | 
20 | CN(C(=O)C1CCCCC1)[C@H](Cc1cccnc1)CN1CCN(c2cccc3c2OCCO3)CC1 [Example 24, Cyclohexanecarboxylic acid {(1R)-2-[4-(2,3-dihydro-benzo[1,4]dioxin-5-yl)-piperazin-1-yl]-1-pyridin-3-ylmethyl-ethyl}-methyl-amide] | 2.48 | 77 |  | 
21 | CC1(C(=O)N[C@H](Cc2ccncc2)CN2CCN(c3cccc4c3OCCO4)CC2)CCCCC1 (as salt: hydrochloride) [Example 23, 1-Methyl-cyclohexanecarboxylic acid {(1R)-2-[4-(2,3-dihydro-benzo[1,4]dioxin-5-yl)-piperazin-1-yl]-1-pyridin-4-ylmethyl-ethyl}-amide] |  |  | 188 to 190 | 
22 | COc1ccccc1N1CCN(C[C@@H](Cc2ccncc2)NC(=O)C2(C)CCCCC2)CC1 [Example 10, (R)-1-Methyl-cyclohexanecarboxylic acid {2-[4-(2-methoxy-phenyl)-piperazin-1-yl]-1-pyridin-4-ylmethyl-ethyl}-amide] | 0.72 | 11.3 |  | 
